# Experimental data reported in patent US20260123631A1, “NATURAL PORPHIN SALT AND USE THEREOF AS PLANT GROWTH REGULATOR AND PLANT IMMUNITY INDUCER” (NANJING BOSTEC BIOLOGICAL ENGINEERING CO., LTD, priority 2022, published 2026).
# Assays:
# [1] = tested on: Phytophthora capsici LT263; test: Inducing resistance of Nicotiana benthamiana leaves to phytophthora blight; assay type: in vivo; details: inoculated on day 7 and day 10, read 36 h after inoculation
# Experimental: At 36 h after the inoculation, results were observed.
# rice [2] = test: Alleviation of herbicide damage in rice; assay type: in vivo, rice (Jinjing 818); details: 0.25 ppm
# Experimental: Method: A treatment plot of 1.5 mu and a control plot of 1.5 mu were set. The sample was sprayed twice after the herbicide damage occurred in rice sprayed with a herbicide. Clear water was adopted as a blank control. Specific operations were as follows:
# On June 20 when weeds had 3 leaves and rice had 3 to 3.5 leaves, the treatment plot and the control plot both were treated with 4% imazamox at 200 mL/mu and 10% pyribenzoxim at 40 mL/mu by a stem and leaf spray method, with 30 kg of water per mu. One week later, a weeding effect was prominent, but rice underwent obvious pesticide damage. 10 d after the herbicide application (June 30), the treatment plot was sprayed with the sample at 7.5 mg/mu by a stem and leaf spray method, with a solution of 30 L per mu. The control plot was sprayed with clear water. At an inflorescence emergence stage of rice (August 25), the spraying was conducted once again by the same method.
# [3] = Dilution and pH determination for sample solutions; assay type: physicochemical
# Experimental: Method: 0.2500 g of a sample was accurately weighed and added to a 25 mL volumetric flask, dissolved with purified water, and diluted to a specified scale to prepare a 1.00% (10,000.0 ppm) initial solution. The initial solution was diluted with purified water in different ratios to prepare a series of solutions with a concentration of 1,000.0 ppm to 0.1 ppm. A pH value of each sample was determined three times.
# Phytophthora capsici = test: Pot experiment: resistance of pepper to phytophthora blight; assay type: in vivo; details: 2.0 ppm sprayed on pepper seedlings (Sujiao No. 5), inoculated 3 d later
# Experimental: Preparation of Phytophthora capsici zoospores: Fungal discs were collected at an edge of a newly-activated Phytophthora capsici plate. 6 mm fungal discs were picked with a needle and transferred to an empty Petri dish with a diameter of 9 cm, with fungi facing up and 10 fungal discs for each plate. 15 mL of sterilized water was added to the Petri dish, and the Petri dish was placed in a clean bench under light. The water was changed once every 30 min for 3 times in total. The remaining wastewater was removed by a pipette, and then 10 mL of the V8 liquid medium was added. The Petri dish was incubated in a 25° C. incubator for 24 h in the dark to induce the production of a large number of sporangiospores. Then the Petri dish was placed in a 4° C. refrigerator for 30 min and then incubated in a 25° C. incubator for 30 min, such that a large number of zoospores were released. 10 L of a sample was collected, and observed and counted with a hemocytometer under a microscope. The remaining sample was collected for later use.
# Pepper seedlings at a 4-6 leaf stage were transplanted, with one plant in each pot. […] 3 replicates were set for each treatment, and 18 pots were adopted for each replicate. After the treatment, the observation was conducted regularly once a day. An incidence rate of pepper was recorded, and a disease index and a control efficiency were counted. […]
# leaf blast in rice = test: Field control of leaf blast in rice; assay type: in vivo, rice (Nanjing 9108); details: 3 mg/mu sprayed 3 times (0.1, 0.067, 0.067 ppm)
# Experimental: (§1) The experiment was conducted according to experimental specifications in the field efficacy standard of GB/T17980.19-2000. In the experiment, the following two treatments were set: a first treatment: sodium iron chlorin was applied, and a second treatment: a blank control (water) was applied. A test sample was fully dissolved and diluted, and then applied. Based on the characteristics of disease and pest control, an agent was applied once at each of a late tillering stage (Jul. 22, 2021), a jointing-booting stage (Aug. 16, 2021), and a full heading stage (Aug. 30, 2021). […] Water amounts required per mu for the three times were 30 L, 45 L, and 45 L (sample concentrations: 0.1 ppm, 0.067 ppm, and 0.067 ppm), respectively. An area for each treatment was 3 mu. According to a five-point sampling method, 5 sampling points (20 m^2 per sampling point) were set for each treatment. The occurrence of leaf blast in rice was investigated in the field before harvesting.
# [4] = Stability of sample solutions in the dark/under light; assay type: physicochemical
# Outline: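 Salt in water, or acidic reference in 30–50% aqueous ethanol, at about 10 ppm; UV absorbance scanned 200–800 nm at 0, 1, 2, 3 h, stored at 25° C dark or under 30,000 lux light. Relative content = max-peak absorbance at each time divided by 0 h value (100%).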
# tobacco = test: Spraying on tobacco to improve a yield; assay type: in vivo, tobacco (Yunyan 87); details: 45 L per mu
# Experimental: Method: Four spraying concentrations were set. For each treatment, four plots were adopted, with each plot of 20 m^2. […] During harvesting, sampling was conducted to count a plant height, a leaf length, a leaf width, and a single-leaf weight. All tobacco leaves of the plots were baked into flue-cured tobacco. […]
# rice [5] = test: Rice yield in the leaf blast field experiment; assay type: in vivo, rice (Nanjing 9108); details: 3 mg/mu sprayed 3 times
# Experimental: as §1
# The harvesting was conducted on Nov. 8, 2021. On the eve of harvesting, the yield composition and structure were investigated. Then a yield per mu was measured.
# [6] = 7.5 mg/mu sprayed twice after imazamox/pyribenzoxim damage
substance,measurement,setting,value
sodium iron chlorin [Example 21],lesion area after LT263 inoculation compared with DDW,[1]; 2.0 ppm injected into leaves,significantly reduce a lesion area
same,lesion area after LT263 inoculation compared with DDW,[1]; 20.0 ppm injected into leaves,significantly reduce a lesion area
same,Actual yield,rice [2]; [6],675 kg/mu
same,Ear number/mu,rice [2]; [6],275945.5
same,Filled grain number/ear,rice [2]; [6],97.64
same,Grain number/ear,rice [2]; [6],104.5
same,Seed set rate,rice [2]; [6],0.9344
same,Theoretical yield,rice [2]; [6],816.8 kg/mu
same,Thousand-grain weight,rice [2]; [6],30.30 g
same,increase of yield per mu,"rice [2]; 7.5 mg/mu sprayed twice, versus clear water",≥ 22%
same,pH,[3]; 0.1 ppm in purified water,(6.79)
same,pH,[3]; 1.0 ppm in purified water,(6.89)
same,pH,[3]; 10.0 ppm in purified water,(7.23)
same,pH,[3]; 20.0 ppm in purified water,(7.42)
same,pH,[3]; 30.0 ppm in purified water,(7.51)
same,pH,[3]; 100.0 ppm in purified water,(8.34)
same,pH,[3]; 1000.0 ppm in purified water,(9.71)
same,pH,[3]; 10000.0 ppm in purified water,(10.41)
same,Control effect,Phytophthora capsici,71.89%
same,Disease index,Phytophthora capsici,24.36
same,Average disease index,leaf blast in rice,20.09%
same,Average incidence rate,leaf blast in rice,8.0%
same,Corrected control effect,leaf blast in rice,43.93%
same,Relative content,"[4]; in the dark, 25° C., 0 h",100.0%
same,Relative content,"[4]; in the dark, 25° C., 1 h",99.51%
same,Relative content,"[4]; in the dark, 25° C., 2 h",99.60%
same,Relative content,"[4]; in the dark, 25° C., 3 h",99.43%
same,Relative content,"[4]; under light 30,000 lux, 0 h",100.00%
same,Relative content,"[4]; under light 30,000 lux, 1 h, salts in water, acidic reference in 30% to 50% ethanol",69.35%
same,Relative content,"[4]; under light 30,000 lux, 2 h, salts in water, acidic reference in 30% to 50% ethanol",59.05%
same,Relative content,"[4]; under light 30,000 lux, 3 h, salts in water, acidic reference in 30% to 50% ethanol",54.02%
same,Leaf length,tobacco; 0.05 ppm sprayed twice,76.0 cm
same,Leaf width,tobacco; 0.05 ppm sprayed twice,28.5 cm
same,Plant height,tobacco; 0.05 ppm sprayed twice,114.2 cm
same,Weight/leaf,tobacco; 0.05 ppm sprayed twice,8.4 g
same,Yield,tobacco; 0.05 ppm sprayed twice,133.75 kg/mu
same,Yield increase rate,tobacco; 0.05 ppm sprayed twice,9.4%
same,Leaf length,tobacco; 0.10 ppm sprayed twice,77.2 cm
same,Leaf width,tobacco; 0.10 ppm sprayed twice,28.9 cm
same,Plant height,tobacco; 0.10 ppm sprayed twice,116.7 cm
same,Weight/leaf,tobacco; 0.10 ppm sprayed twice,8.7 g
same,Yield,tobacco; 0.10 ppm sprayed twice,138.67 kg/mu
same,Yield increase rate,tobacco; 0.10 ppm sprayed twice,13.5%
same,Leaf length,tobacco; 0.20 ppm sprayed twice,75.6 cm
same,Leaf width,tobacco; 0.20 ppm sprayed twice,28.4 cm
same,Plant height,tobacco; 0.20 ppm sprayed twice,114.3 cm
same,Weight/leaf,tobacco; 0.20 ppm sprayed twice,8.4 g
same,Yield,tobacco; 0.20 ppm sprayed twice,133.59 kg/mu
same,Yield increase rate,tobacco; 0.20 ppm sprayed twice,9.3%
same,Leaf length,tobacco; 0.30 ppm sprayed twice,74.7 cm
same,Leaf width,tobacco; 0.30 ppm sprayed twice,28 cm
same,Plant height,tobacco; 0.30 ppm sprayed twice,114.5 cm
same,Weight/leaf,tobacco; 0.30 ppm sprayed twice,8.3 g
same,Yield,tobacco; 0.30 ppm sprayed twice,132.54 kg/mu
same,Yield increase rate,tobacco; 0.30 ppm sprayed twice,8.5%
same,Ear number per mu,rice [5],"22.40 10,000"
same,Filled grain number per ear,rice [5],117.39
same,Thousand-grain weight,rice [5],26.9 g
same,Yield,rice [5],616.85 kg/mu
same,Yield increase rate,rice [5]; versus water,7.1%
